Laboratory results from patent US20060275321A1, “Polypeptide antagonists of HIV-1 Tat protein” (Phoenix Pharmaceuticals, Inc., priority 2005, published 2006).
Bridges are numbered along the chain shown (N, C = ends). Where no end group is shown, it is not given here. The star is where a group is joined. Acm = CC(=O)NC*

Test system: dissociate cultured cortical neurons
Assay: Mobilization of intracellular Ca2+ in dissociate cultured cortical neurons (Fura-2 AM fluorescence)
Type: cell-based, rat
Settings: dissociate and cultured cortical neurons of newborn Sprague-Dawley rats, value ± spread
Source text: Neurons can be isolated from cerebral cortex according to the protocols for postnatal dissociated nuerons as disclosed for example by Huettner, J. E. and Baughman, R. W., Primary Culture of Identified Neurons From the Visual Cortex of Postnatal Rats, Journal of Neurosciences 6; 3044-3060 (1986); Brewer, G. J., Isolation and Culture of Adult Rat Hippocampal Neurons, Journal of Neuroscience Methods, 71:143-155 (1997); and Brailoiu et al., NAADP Potentiates Neurite Outgrowth, Journal of Biological Chemistry (in press), each hereby incorporated by reference. Newborn Sprague-Dawley rates (about 1 day to about 4 days old) were killed by cervical dislocation. Cerebral cortex was removed and quickly immersed in ice-cold phosphate buffer solution. After removal of meninges, tissue was minced into about 1-millimeter blocks, incubated for about 45 minutes at 37° C. in Hanks balanced salt solution without Ca^2+ and Mg^2+ (Invitrogen, 1600 Faraday Avenue, Carlsbad, Calif. 92008) and supplemented with about 200 ug/mL penicillin, 0.1% EDTA and papain 0.15 mg/mL (Sigma-Aldrich, St. Louis, Mo.). In accordance with the procedure disclosed by Brewer, the tissue can be further dissociated by gentle mechanical trituration. […]

30-86 Cys30Acm, Cys34Acm (Cys31-Cys37): HIV-1 Tat residues 30-86, Cys-Acm at 30 and 34, disulfide bridge Cys31-Cys37 (C(Acm)CFHC(Acm)QVCFITKALGISYGRKKRRQRRRAHQNSQTHQASLSKQPTSQPRGDPTGPKE; disulfide 2-8)
[Ca^2+] response: No Response
